Test results as given in the kinase profiling compilation of Christmann-Franck et al. (2016).

How the values were obtained:
Test in all cases: radiometric filter-binding kinase assay
[1] = target: HIPK3 (human) (UniProt Q9H422)
[2] = target: RPS6KA3 KD1 KD2 (human) (UniProt P51812)
[3] = target: SRC (human) (UniProt P12931)
[4] = target: MAPKAPK5 (human) (UniProt Q8IW41)
[5] = target: IGF1R (human) (UniProt P08069)
[6] = target: BRSK1 (human) (UniProt Q8TDC3)
[7] = target: INSR (human) (UniProt P06213)
[8] = target: MELK (human) (UniProt Q14680)
[9] = tested on: LCK (mouse); settings: accession and sequence are those of the human protein
[10] = target: GSK3B (human) (UniProt P49841)
[11] = target: FGFR1 (human) (UniProt P11362)
[12] = target: STK11 CAB39 STRADA (human) (UniProt Q9Y376+Q7RTN6+Q15831)
[13] = target: TAOK1 (human) (UniProt Q7L7X3)
[14] = target: JAK2 JH1 JH2 (human) (UniProt O60674)
[15] = target: MINK1 (human) (UniProt Q8N4C8)
[16] = target: NTRK1 (human) (UniProt P04629)
[17] = tested on: ROCK2 (rat); settings: accession and sequence are those of the human protein
[18] = target: CLK2 (human) (UniProt P49760)
[19] = target: CSNK1D (human) (UniProt P48730)
[20] = target: IRAK4 (human) (UniProt Q9NWZ3)
[21] = target: CSK (human) (UniProt P41240)
[22] = target: MARK1 (human) (UniProt Q9P0L2)
[23] = tested on: AKT2 (human), P31751 [S474D]
[24] = target: RIPK2 (human) (UniProt O43353)
[25] = target: MAPK11 (human) (UniProt Q15759)
[26] = target: CAMKK2 (human) (UniProt Q96RR4)
[27] = target: MAPK15 (human) (UniProt Q8TD08)
[28] = target: PRKCZ (human) (UniProt Q05513)
[29] = target: FLT1 (human) (UniProt P17948)
[30] = target: MAPK14 (human) (UniProt Q16539)
[31] = target: EPHA2 (human) (UniProt P29317)
[32] = target: MAP3K1 (human) (UniProt Q13233)
[33] = target: DYRK3 (human) (UniProt O43781)
[34] = target: HIPK1 (human) (UniProt Q86Z02)
[35] = target: MAP3K7 TAB1 (human) (UniProt Q15750+O43318)
Chain of MAP3K7 TAB1 (human) (O43318 whole entry, looked up): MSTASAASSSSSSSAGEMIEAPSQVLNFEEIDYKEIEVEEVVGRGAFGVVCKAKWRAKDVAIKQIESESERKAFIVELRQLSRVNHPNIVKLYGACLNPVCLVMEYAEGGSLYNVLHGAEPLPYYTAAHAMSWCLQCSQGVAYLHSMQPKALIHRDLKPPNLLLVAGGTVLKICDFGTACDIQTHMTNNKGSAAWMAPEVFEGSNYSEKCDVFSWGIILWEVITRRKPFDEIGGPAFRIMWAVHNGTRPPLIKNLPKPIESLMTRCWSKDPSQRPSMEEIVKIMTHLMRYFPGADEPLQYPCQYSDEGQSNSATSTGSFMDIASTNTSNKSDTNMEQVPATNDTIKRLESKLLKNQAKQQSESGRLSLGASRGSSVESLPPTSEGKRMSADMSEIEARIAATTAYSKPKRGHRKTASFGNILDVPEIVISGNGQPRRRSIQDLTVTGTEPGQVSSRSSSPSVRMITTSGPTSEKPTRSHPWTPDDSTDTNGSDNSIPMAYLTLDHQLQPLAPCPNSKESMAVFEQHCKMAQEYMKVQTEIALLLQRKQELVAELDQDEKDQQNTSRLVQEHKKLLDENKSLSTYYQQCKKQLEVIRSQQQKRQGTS
Chain of MAP3K7 TAB1 (human) (Q15750 whole entry, looked up): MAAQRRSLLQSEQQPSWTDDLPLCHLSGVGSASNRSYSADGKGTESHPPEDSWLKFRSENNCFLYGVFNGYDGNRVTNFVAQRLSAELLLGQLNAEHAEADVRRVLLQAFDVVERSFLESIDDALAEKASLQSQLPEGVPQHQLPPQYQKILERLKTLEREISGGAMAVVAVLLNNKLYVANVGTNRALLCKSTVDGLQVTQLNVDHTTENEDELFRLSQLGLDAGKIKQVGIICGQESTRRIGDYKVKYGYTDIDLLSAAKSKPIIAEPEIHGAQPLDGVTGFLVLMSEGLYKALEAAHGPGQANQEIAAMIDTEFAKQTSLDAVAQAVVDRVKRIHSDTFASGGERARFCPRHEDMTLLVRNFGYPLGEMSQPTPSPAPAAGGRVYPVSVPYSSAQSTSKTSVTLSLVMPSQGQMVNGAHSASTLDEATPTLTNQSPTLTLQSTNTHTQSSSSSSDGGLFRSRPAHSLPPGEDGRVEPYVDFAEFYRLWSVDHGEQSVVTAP

Chain of CSNK1D (human) (P48730 whole entry, looked up): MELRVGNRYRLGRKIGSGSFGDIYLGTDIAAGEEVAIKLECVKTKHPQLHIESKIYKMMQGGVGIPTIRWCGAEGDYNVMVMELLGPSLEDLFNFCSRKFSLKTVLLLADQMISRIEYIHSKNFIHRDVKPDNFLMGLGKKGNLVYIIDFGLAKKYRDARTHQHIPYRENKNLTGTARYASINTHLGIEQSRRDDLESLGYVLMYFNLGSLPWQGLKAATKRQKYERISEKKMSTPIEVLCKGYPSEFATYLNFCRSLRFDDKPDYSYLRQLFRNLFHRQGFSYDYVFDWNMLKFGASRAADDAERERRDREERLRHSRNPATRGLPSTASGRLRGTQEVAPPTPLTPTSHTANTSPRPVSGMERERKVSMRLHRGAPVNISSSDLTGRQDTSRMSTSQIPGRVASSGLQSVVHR
Chain of JAK2 JH1 JH2 (human) (O60674 whole entry, looked up): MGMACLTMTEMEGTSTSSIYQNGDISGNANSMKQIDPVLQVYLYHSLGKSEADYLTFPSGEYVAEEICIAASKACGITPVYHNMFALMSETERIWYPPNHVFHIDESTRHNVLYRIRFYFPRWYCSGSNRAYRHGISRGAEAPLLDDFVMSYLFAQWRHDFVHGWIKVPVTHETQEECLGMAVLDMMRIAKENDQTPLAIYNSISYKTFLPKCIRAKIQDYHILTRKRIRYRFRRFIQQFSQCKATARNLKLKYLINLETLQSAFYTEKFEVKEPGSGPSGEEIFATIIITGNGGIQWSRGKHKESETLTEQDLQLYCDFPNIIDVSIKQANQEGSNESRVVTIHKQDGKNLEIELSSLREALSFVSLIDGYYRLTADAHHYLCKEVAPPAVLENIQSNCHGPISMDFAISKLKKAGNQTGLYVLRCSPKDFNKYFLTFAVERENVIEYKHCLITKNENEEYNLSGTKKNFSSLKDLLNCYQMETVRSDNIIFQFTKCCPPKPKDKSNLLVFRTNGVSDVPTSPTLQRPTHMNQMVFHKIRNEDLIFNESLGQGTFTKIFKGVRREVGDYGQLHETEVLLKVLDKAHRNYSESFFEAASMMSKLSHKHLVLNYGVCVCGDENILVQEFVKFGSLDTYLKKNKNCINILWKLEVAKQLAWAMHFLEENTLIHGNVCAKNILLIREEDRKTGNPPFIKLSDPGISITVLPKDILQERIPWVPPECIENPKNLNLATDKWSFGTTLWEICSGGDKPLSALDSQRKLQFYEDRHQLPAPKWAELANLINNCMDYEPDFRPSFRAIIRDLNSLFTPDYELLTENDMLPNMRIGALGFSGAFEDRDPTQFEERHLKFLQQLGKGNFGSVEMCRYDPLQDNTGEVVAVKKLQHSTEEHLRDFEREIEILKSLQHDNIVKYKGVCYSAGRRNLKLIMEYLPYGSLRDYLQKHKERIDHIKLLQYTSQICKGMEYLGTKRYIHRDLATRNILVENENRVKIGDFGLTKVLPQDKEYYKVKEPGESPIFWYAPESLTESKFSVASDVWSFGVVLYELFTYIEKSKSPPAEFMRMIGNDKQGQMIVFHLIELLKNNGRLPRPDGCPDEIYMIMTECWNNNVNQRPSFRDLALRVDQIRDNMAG
Chain of INSR (human) (P06213 whole entry, looked up): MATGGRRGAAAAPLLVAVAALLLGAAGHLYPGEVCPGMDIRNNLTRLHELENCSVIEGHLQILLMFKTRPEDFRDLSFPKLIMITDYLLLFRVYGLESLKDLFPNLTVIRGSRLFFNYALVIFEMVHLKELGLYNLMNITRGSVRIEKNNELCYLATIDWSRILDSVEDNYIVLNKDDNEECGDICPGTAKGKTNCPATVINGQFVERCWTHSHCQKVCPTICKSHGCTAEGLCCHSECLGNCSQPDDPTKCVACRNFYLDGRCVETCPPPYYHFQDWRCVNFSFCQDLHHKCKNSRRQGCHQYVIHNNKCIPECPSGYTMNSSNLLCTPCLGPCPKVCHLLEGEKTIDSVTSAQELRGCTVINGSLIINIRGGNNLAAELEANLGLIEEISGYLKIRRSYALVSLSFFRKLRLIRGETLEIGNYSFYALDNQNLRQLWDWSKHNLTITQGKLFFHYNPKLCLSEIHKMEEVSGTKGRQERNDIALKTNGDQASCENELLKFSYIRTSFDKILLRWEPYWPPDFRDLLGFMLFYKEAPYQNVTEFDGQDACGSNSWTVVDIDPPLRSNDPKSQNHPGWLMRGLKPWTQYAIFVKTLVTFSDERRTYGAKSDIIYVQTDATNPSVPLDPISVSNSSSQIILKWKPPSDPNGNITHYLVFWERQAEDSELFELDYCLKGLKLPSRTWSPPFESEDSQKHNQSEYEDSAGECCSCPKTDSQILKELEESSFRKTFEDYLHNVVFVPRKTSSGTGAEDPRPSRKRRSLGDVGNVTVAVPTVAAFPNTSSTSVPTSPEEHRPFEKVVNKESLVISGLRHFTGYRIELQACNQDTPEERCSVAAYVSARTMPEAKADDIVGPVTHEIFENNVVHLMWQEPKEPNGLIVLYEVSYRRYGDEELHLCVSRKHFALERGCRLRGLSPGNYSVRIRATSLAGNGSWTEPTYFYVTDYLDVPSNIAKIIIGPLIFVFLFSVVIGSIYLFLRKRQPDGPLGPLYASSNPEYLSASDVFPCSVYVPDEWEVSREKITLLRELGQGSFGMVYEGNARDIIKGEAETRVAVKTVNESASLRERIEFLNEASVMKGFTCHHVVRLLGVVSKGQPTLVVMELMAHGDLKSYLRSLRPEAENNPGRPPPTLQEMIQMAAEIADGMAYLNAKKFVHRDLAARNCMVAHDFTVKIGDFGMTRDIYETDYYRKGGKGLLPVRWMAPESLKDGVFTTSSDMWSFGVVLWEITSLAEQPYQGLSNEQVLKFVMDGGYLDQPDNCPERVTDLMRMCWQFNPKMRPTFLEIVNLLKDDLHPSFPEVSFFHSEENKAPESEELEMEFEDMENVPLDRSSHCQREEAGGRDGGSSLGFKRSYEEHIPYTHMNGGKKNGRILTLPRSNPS
Chain of PRKCZ (human) (Q05513 whole entry, looked up): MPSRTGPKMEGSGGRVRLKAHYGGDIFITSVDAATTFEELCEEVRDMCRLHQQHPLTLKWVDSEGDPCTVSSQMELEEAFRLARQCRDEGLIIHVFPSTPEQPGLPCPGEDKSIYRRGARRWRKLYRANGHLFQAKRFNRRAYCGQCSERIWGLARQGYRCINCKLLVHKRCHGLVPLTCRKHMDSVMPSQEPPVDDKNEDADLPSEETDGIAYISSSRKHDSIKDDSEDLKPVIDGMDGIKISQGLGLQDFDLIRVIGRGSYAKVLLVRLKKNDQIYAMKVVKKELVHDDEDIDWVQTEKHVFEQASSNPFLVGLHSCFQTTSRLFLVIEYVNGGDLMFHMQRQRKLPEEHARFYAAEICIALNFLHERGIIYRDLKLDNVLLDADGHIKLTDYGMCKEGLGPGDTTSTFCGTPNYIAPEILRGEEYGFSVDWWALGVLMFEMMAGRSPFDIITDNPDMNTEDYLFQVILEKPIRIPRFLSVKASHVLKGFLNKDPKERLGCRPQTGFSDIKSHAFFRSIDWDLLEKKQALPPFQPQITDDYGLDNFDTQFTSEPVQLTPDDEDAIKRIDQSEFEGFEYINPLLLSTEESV
Chain of MAPK14 (human) (Q16539 whole entry, looked up): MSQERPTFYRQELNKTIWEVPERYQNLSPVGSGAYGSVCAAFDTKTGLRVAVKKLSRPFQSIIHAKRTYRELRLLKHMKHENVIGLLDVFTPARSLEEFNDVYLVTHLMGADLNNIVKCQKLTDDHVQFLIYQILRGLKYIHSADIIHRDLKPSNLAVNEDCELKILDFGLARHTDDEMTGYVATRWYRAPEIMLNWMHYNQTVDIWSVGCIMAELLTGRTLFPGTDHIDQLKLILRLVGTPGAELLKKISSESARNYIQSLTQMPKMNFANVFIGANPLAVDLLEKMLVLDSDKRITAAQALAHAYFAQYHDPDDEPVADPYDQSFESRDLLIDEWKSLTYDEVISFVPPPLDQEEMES

Cc1ccc(=O)n(-c2ccccc2)c1
residual activity ([1]; compound 1.0 µM): 100% | residual activity ([1]; compound 10.0 µM): 96% | residual activity ([2]; compound 1.0 µM): 98% | residual activity ([2]; compound 10.0 µM): 94% | residual activity ([3]; compound 1.0 µM): 123% | residual activity ([3]; compound 10.0 µM): 102% | residual activity ([4]; compound 1.0 µM): 100% | residual activity ([4]; compound 10.0 µM): 95% | residual activity ([5]; compound 1.0 µM): 105% | residual activity ([5]; compound 10.0 µM): 102% | residual activity ([6]; compound 1.0 µM): 95% | residual activity ([6]; compound 10.0 µM): 93% | residual activity ([7]; compound 1.0 µM): 110% | residual activity ([7]; compound 10.0 µM): 103% | residual activity ([8]; compound 1.0 µM): 94% | residual activity ([8]; compound 10.0 µM): 98% | residual activity ([9]; compound 1.0 µM): 96% | residual activity ([9]; compound 10.0 µM): 102% | residual activity ([10]; compound 1.0 µM): 102% | residual activity ([10]; compound 10.0 µM): 99% | residual activity ([11]; compound 1.0 µM): 101% | residual activity ([12]; compound 1.0 µM): 103% | residual activity ([12]; compound 10.0 µM): 95% | residual activity ([13]; compound 1.0 µM): 118% | residual activity ([13]; compound 10.0 µM): 100% | residual activity ([14]; compound 1.0 µM): 103% | residual activity ([14]; compound 10.0 µM): 90% | residual activity ([15]; compound 1.0 µM): 106% | residual activity ([15]; compound 10.0 µM): 108% | residual activity ([16]; compound 1.0 µM): 103% | residual activity ([16]; compound 10.0 µM): 112% | residual activity ([17]; compound 1.0 µM): 94% | residual activity ([17]; compound 10.0 µM): 84% | residual activity ([18]; compound 1.0 µM): 120% | residual activity ([18]; compound 10.0 µM): 112% | residual activity ([19]; compound 1.0 µM): 97% | residual activity ([19]; compound 10.0 µM): 102% | residual activity ([20]; compound 1.0 µM): 83% | residual activity ([20]; compound 10.0 µM): 95% | residual activity ([21]; compound 1.0 µM): 98% | residual activity ([21]; compound 10.0 µM): 87% | residual activity ([22]; compound 1.0 µM): 99% | residual activity ([22]; compound 10.0 µM): 98% | residual activity ([23]; compound 1.0 µM): 99% | residual activity ([23]; compound 10.0 µM): 91% | residual activity ([24]; compound 1.0 µM): 86% | residual activity ([24]; compound 10.0 µM): 87% | residual activity ([25]; compound 1.0 µM): 120% | residual activity ([25]; compound 10.0 µM): 111% | residual activity ([26]; compound 1.0 µM): 97% | residual activity ([26]; compound 10.0 µM): 108% | residual activity ([27]; compound 1.0 µM): 95% | residual activity ([27]; compound 10.0 µM): 86% | residual activity ([28]; compound 1.0 µM): 109% | residual activity ([28]; compound 10.0 µM): 97% | residual activity ([29]; compound 1.0 µM): 100% | residual activity ([29]; compound 10.0 µM): 107% | residual activity ([30]; compound 1.0 µM): 102% | residual activity ([30]; compound 10.0 µM): 83% | residual activity ([31]; compound 1.0 µM): 113% | residual activity ([31]; compound 10.0 µM): 111% | residual activity ([32]; compound 1.0 µM): 106% | residual activity ([32]; compound 10.0 µM): 103% | residual activity ([33]; compound 1.0 µM): 103% | residual activity ([33]; compound 10.0 µM): 93% | residual activity ([34]; compound 1.0 µM): 118% | residual activity ([34]; compound 10.0 µM): 103%

C=CC(=O)N1CCC[C@@H](n2nc(-c3ccc(Oc4ccccc4)cc3)c3c(N)ncnc32)C1
residual activity ([1]; compound 0.1 µM): 100% | residual activity ([1]; compound 1.0 µM): 123% | residual activity ([1]; compound 10.0 µM): 110% | residual activity ([2]; compound 0.1 µM): 103% | residual activity ([2]; compound 1.0 µM): 106% | residual activity ([2]; compound 10.0 µM): 68% | residual activity ([4]; compound 0.1 µM): 101% | residual activity ([4]; compound 1.0 µM): 107% | residual activity ([4]; compound 10.0 µM): 83% | residual activity ([5]; compound 0.1 µM): 95% | residual activity ([5]; compound 1.0 µM): 93% | residual activity ([5]; compound 10.0 µM): 63% | residual activity ([6]; compound 10.0 µM): 49% | residual activity ([7]; compound 0.1 µM): 77% | residual activity ([7]; compound 10.0 µM): 31% | residual activity ([8]; compound 0.1 µM): 69% | residual activity ([8]; compound 10.0 µM): 56% | residual activity ([9]; compound 0.1 µM): 22% | residual activity ([9]; compound 10.0 µM): 9% | residual activity ([10]; compound 0.1 µM): 104% | residual activity ([10]; compound 1.0 µM): 95% | residual activity ([10]; compound 10.0 µM): 75% | residual activity ([11]; compound 0.1 µM): 52% | residual activity ([11]; compound 1.0 µM): 24% | residual activity ([11]; compound 10.0 µM): 15% | residual activity ([12]; compound 0.1 µM): 106% | residual activity ([12]; compound 10.0 µM): 100% | residual activity ([13]; compound 0.1 µM): 113% | residual activity ([13]; compound 1.0 µM): 119% | residual activity ([14]; compound 0.1 µM): 90% | residual activity ([14]; compound 1.0 µM): 103% | residual activity ([14]; compound 10.0 µM): 83% | residual activity ([35]; compound 0.1 µM): 102% | residual activity ([35]; compound 1.0 µM): 106% | residual activity ([35]; compound 10.0 µM): 66% | residual activity ([15]; compound 0.1 µM): 90% | residual activity ([15]; compound 1.0 µM): 91% | residual activity ([15]; compound 10.0 µM): 57% | residual activity ([16]; compound 0.1 µM): 64% | residual activity ([16]; compound 1.0 µM): 46% | residual activity ([16]; compound 10.0 µM): 13% | residual activity ([17]; compound 0.1 µM): 93% | residual activity ([17]; compound 1.0 µM): 111% | residual activity ([17]; compound 10.0 µM): 69% | residual activity ([19]; compound 0.1 µM): 98% | residual activity ([19]; compound 1.0 µM): 111% | residual activity ([19]; compound 10.0 µM): 115% | residual activity ([20]; compound 0.1 µM): 103% | residual activity ([20]; compound 1.0 µM): 102% | residual activity ([20]; compound 10.0 µM): 86% | residual activity ([21]; compound 0.1 µM): 25% | residual activity ([21]; compound 1.0 µM): 15% | residual activity ([21]; compound 10.0 µM): 3% | residual activity ([22]; compound 0.1 µM): 101% | residual activity ([22]; compound 1.0 µM): 103% | residual activity ([22]; compound 10.0 µM): 88% | residual activity ([23]; compound 0.1 µM): 80% | residual activity ([23]; compound 1.0 µM): 93% | residual activity ([23]; compound 10.0 µM): 71% | residual activity ([24]; compound 0.1 µM): 21% | residual activity ([24]; compound 1.0 µM): 5% | residual activity ([24]; compound 10.0 µM): 2% | residual activity ([25]; compound 1.0 µM): 103% | residual activity ([25]; compound 10.0 µM): 68% | residual activity ([26]; compound 0.1 µM): 86% | residual activity ([26]; compound 1.0 µM): 109% | residual activity ([26]; compound 10.0 µM): 80% | residual activity ([27]; compound 0.1 µM): 85% | residual activity ([27]; compound 1.0 µM): 98% | residual activity ([27]; compound 10.0 µM): 74% | residual activity ([28]; compound 0.1 µM): 90% | residual activity ([28]; compound 1.0 µM): 98% | residual activity ([28]; compound 10.0 µM): 81% | residual activity ([29]; compound 0.1 µM): 40% | residual activity ([29]; compound 1.0 µM): 7% | residual activity ([29]; compound 10.0 µM): 2% | residual activity ([30]; compound 0.1 µM): 99% | residual activity ([30]; compound 1.0 µM): 103% | residual activity ([30]; compound 10.0 µM): 101% | residual activity ([31]; compound 0.1 µM): 91% | residual activity ([31]; compound 1.0 µM): 98% | residual activity ([31]; compound 10.0 µM): 64% | residual activity ([32]; compound 0.1 µM): 106% | residual activity ([32]; compound 1.0 µM): 103% | residual activity ([32]; compound 10.0 µM): 56% | residual activity ([33]; compound 0.1 µM): 93% | residual activity ([33]; compound 1.0 µM): 86% | residual activity ([33]; compound 10.0 µM): 68% | residual activity ([34]; compound 0.1 µM): 75% | residual activity ([34]; compound 1.0 µM): 87% | residual activity ([34]; compound 10.0 µM): 75%
